According to patent US20120309699A1, “COMPOUNDS HAVING ANTI-INFLAMMATORY ACTIVITY” (Consejo Superior de Investigaciones Cientificas (CSIC), priority 2009, published 2012):
Entries after “also recorded” stand apart in the source; their conditions may differ.

Experiments:
[1] = test system: C57BL/6 mice; assay: DSS (sodium dextran sulfate) model for intestinal inflammation: colon length, weight, DAI, appearance, colonic architecture; assay type: in vivo; conditions: for Conservation of colon length (shortening of the colon): 1% DSS for 8 days, diet supplemented with 2.3 mg/day/kg (HED 10 mg); for DAI (Disease Activity Index): 8 days with DSS and 6 days recovery; for DAI (Disease Activity Index) / General appearance of the mice / Weight change / Attenuation of damage in colonic mucosa (colonic architecture): HED 10 mg; for Rectal hemorrhage / General appearance of the mice: after 1% DSS for 8 days; for Weight change: after administration of DSS (day 21); for Attenuation of damage in colonic mucosa (colonic architecture): hematoxylin-eosin, during treatment with DSS
Protocol: (§1) A model for intestinal inflammation based on the administration of DSS (sodium dextran sulfate) to C57BL/6 mice was used. At the present time there is no consensus about which overall is the best model for experimental colitis. The DSS model has been widely used because it has clinical, morphological and analytical characteristics which up to a point are similar to those specific to patients with ulcerative colitis or Crohn's disease.
(§2) The in vivo inflammation test was carried out using duplicates separated by a number of months. In each test each group of animals (n=8) was fed a standard diet supplemented with 2.3 mg/day/kg (animal weight) of each of the compounds, depending upon the group. This dose assumes the ingestion of 0.05 mg/day (50 μg/day) per mouse (having a mean weight of 22 grams). This dose extrapolated to a human being is equivalent to 10 mg in an adult weighing 70 kg; using the formula HED (human equivalent dose)=animal dose in mg/kg×(animal weight kg/human weight in kg)^0.33.
In each test the mice were fed for 3 weeks during which 1% DSS was included in their drink. The DSS was maintained for 8 days (and the same food as from the start). Then the DSS was withdrawn and the animals were allowed to recover for another 6 days (again with the same food).
Groups included in the investigation: control (standard food), control-DSS, DSS-resveratrol (RES), DSS-piceid (PIC), DSS-resveratrol-diglucoside (DIGLUC), DSS-piceid-butyrate (BUT), DSS-piceid-octanoate (OCT).
• Monitoring of weight, food and drink ingestion. The mice in all groups were individually monitored, with weight, quantity of food ingested and water drunk each day being monitored throughout the experimental test. • Blood and water in feces. The water content of feces, as an indication of diarrhea, was evaluated using the difference in weight following evaporation in a stove. Blood was measured using reactive strips based on the guaiacol-peroxidase reaction (HealthCare Diagnosis Inc.). The samples were diluted 1:50 in saline solution and applied to the reactive strips. After 60 sec the color was compared with the template provided by the manufacturer. The reaction was measured using a scale from 0 (negative result) to 4 (most intense color change). • Length of colon. After sacrifice the colon was obtained from each mouse, extended and measured. Samples of the colonic mucosa for various tests mentioned below were obtained by scraping. • Myeloperoxidase activity in colonic mucosa. This was evaluated by spectrophotometry at 460 nm using O-dianisidine reagent and hydrogen peroxide. The change in absorbance at 460 nm was monitored over 10 minutes in a V-630 spectrophotometer (Jasco, Tokyo, Japan). MPO activity was expressed as mU of activity/mg of fresh tissue, comparing the increase in absorbance with a standard straight line obtained using leukocyte myeloperoxidase (Sigma). • Prostaglandins in colonic mucosa. Levels of PGE2 were measured in colonic mucosa homogenates using an immunoenzyme method using a Cayman Chem. kit (USA). • “Antibody array”. The “antibody array” kit from RayBiotech (“RayBio Mouse Inflammation Antibody Array 1”) was used to determine cytokines in colonic tissue samples. The “RayBio Mouse inflammation antibody arrays” are a fast and accurate system for determining the expression profile of multiple cytokines (in this case 40) in a very sensitive way. The sensitivity is 100 times greater than that of the ELISA method. The measurement was made in duplicate following the manufacturer's instructions. Membranes were blocked with blocking buffer and then incubated with 300 μg of protein for 2 hours. Finally the membranes were incubated with a cocktail of antibodies conjugated with biotin and then radish peroxidase marked with streptavidin. The signal was detected by chemoluminescence. Images were captured using a CCD camera fitted to a Biorad Chemidoc XRS imaging station. Signal intensities (densitometry) were analyzed using ScanAlyze software. […]

[2] = test system: E. coli; assay: Microbiota counts in feces: E. coli; assay type: in vivo, mice; conditions: after administration of DSS; HED 10 mg
Protocol: as §1
as §2, with “kg)^0.33. […]” for “kg)^0.33.”
• Monitoring of weight, food and drink ingestion. The mice in all groups were individually monitored, with weight, quantity of food ingested and water drunk each day being monitored throughout the experimental test. • Blood and water in feces. The water content of feces, as an indication of diarrhea, was evaluated using the difference in weight following evaporation in a stove. Blood was measured using reactive strips based on the guaiacol-peroxidase reaction (HealthCare Diagnosis Inc.). […] The reaction was measured using a scale from 0 (negative result) to 4 (most intense color change). • Length of colon. After sacrifice the colon was obtained from each mouse, extended and measured. […] This was evaluated by spectrophotometry at 460 nm using O-dianisidine reagent and hydrogen peroxide. The change in absorbance at 460 nm was monitored over 10 minutes in a V-630 spectrophotometer (Jasco, Tokyo, Japan). […] Levels of PGE2 were measured in colonic mucosa homogenates using an immunoenzyme method using a Cayman Chem. kit (USA). • “Antibody array”. […] The signal was detected by chemoluminescence. […]

[3] = test system: interleukin-8 (IL-8); assay: Production of interleukin-8 in HT-29 cells inoculated with Listeria monocytogenes Scott A; assay type: cell-based, human; conditions: HT-29, Listeria monocytogenes Scott A; for Modulation of IL-8 production at increased dose: 50 and 100 μM; for Production of IL-8: 6 hours
Protocol: The human colon carcinoma cell HT-29 model was used to evaluate the ability of the compounds derived from resveratrol to modulate the production of interleukin-8 as a response to pathogenic food bacteria. […] Cell viability was observed under the microscope and the supernatants from the wells were recovered. After centrifuging (10,000 rpm/10 min) and filtering the supernatants (0.22), IL-8 was determined using the ELISA method (Human Elisa IL-8 diaclone). The concentrations of the various derivatives tested were detected in the digestive tract of experimental animals and therefore the test fell within the range of physiological achievable concentrations.

| Compound | Conservation of colon length (shortening of the colon) [1] | DAI (Disease Activity Index) [1] | Rectal hemorrhage [1] | General appearance of the mice [1] | Weight change [1] | Attenuation of damage in colonic mucosa (colonic architecture) [1] | E. coli count in feces [2] | Modulation of IL-8 production at increased dose [3] | Production of IL-8 [3] |
| --- | --- | --- | --- | --- | --- | --- | --- | --- | --- |
| CCCC(=O)OCC1OC(Oc2cc(O)cc(/C=C/c3ccc(O)cc3)c2)C(O)C(O)C1O [BUT, trans-resveratrol-3-O-(6′-O-butanoyl)-β-D-glucopyranoside] | least shortening of the colon | much less than in the remainder | no trace of rectal hemorrhage | OCT (D)≈BUT (C)>>RES≈DIGLUC≈PIC (B)>>control-DSS (A); also recorded: better appearance than the control-DSS | maintained the same weight as the control group | best preserved colonic architecture | clear reduction | more obvious | reduced production significantly |
| CCCCCCCC(=O)OCC1OC(Oc2cc(O)cc(/C=C/c3ccc(O)cc3)c2)C(O)C(O)C1O [OCT, trans-resveratrol-3-O-(6′-O-octanoyl)-β-D-glucopyranoside] | least shortening of the colon | much less than in the remainder | no trace of rectal hemorrhage | OCT (D)≈BUT (C)>>RES≈DIGLUC≈PIC (B)>>control-DSS (A); also recorded: better appearance than the control-DSS | maintained the same weight as the control group | best preserved colonic architecture | clear reduction | more obvious | reduced production significantly |
